These results are taken from US20240150356A1, “Pyrimidine amide compounds and use thereof” (ALPHALA CO., LTD., priority 2019, published 2024).

Holding throughout (assay type): cell-based
The subject of assay [1] is Hep3B cells (hepatocellular carcinoma cell line). Put plainly: In vitro MTS cell viability assay (NCI-60 methodology), Hep3B. To be noted: Homo sapiens, 48 h, 2 days drug incubation, 50% reduction vs time zero, read-out: Hep3B LC50. In short, it runs like this: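 Following NCI-60 method, MTS viability of Hep3B measured 24 h after plating (time zero) and after a further 2-day exposure to five concentrations (2-fold series). LC50 defined where [(Ti−Tz)/Tz]×100 = −50.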
A general note: Tetrazolium dyes change colour on reduction, which living cells bring about.

In assay [2] the test system is SW480 (colon adenocarcinoma cell line). Put plainly: In vitro MTS cell viability assay (NCI-60 methodology), SW480. To be noted: Homo sapiens, SW480 cells, read-out: SW480 LC50. How it is done: (§1) The cell viability measurement is based on the NCI-60 screening methodology (Nat. Rev. Cancer 6, 813-823, 2006). Briefly, cells are inoculated into 96-well plates at the optimal plating density. After 24 h, one of the two plates for Hep3B cell line is processed to determine a time zero cell viability (Tz) by MTS assay (Promega). Compounds are added over a 2-fold serial dilution to provide a total five drug concentrations plus DMSO control. Plates are incubated for a further 2 days, then measured cell viability by MTS assay [control growth (C) and test growth in the presence of drug at the five concentration levels (Ti)]. The LC50 is calculated from [(Ti−Tz)/Tz]×100=−50, which is the drug concentration resulting in a 50% reduction at the end of the drug treatment as compared to that at the beginning.
(§2) The compounds prepared in Tables 1-10 were tested in three in vitro assays, and the results are shown in Tables 1-10 for Hep3B and Table 11 for SW480 and NCI-H460 shown below. Herein, Hep3B refers to hepatocellular carcinoma cell line, SW480 refers to colon adenocarcinoma cell line, and NCI-H460 refers to human lung cancer cell line.
(§3) Shown in Tables 11 are in vitro activities of exemplary compounds of formula (I).

The subject of assay [3] is NCI-H460 (human lung cancer cell line). Put plainly: In vitro MTS cell viability assay (NCI-60 methodology), NCI-H460. To be noted: NCI-H460 cells, read-out: NCI-H460 LC50. Here is the method: as §1, §2, §3

Like-named read-outs stand apart in the source and are kept apart here. Some results are limits rather than exact numbers.

Broadly, the LC50 is the concentration lethal to half of the exposed cells or organisms. Consider `O=C(Nc1nc(-c2ccc(OCC(F)(F)C(F)F)nc2)nc2c1cnn2-c1ccccc1)c1ccc([N+](=O)[O-])s1` [Compound 5-56, 5-nitro-N-(1-phenyl-6-(6-(2,2,3,3-tetrafluoropropoxy)pyridin-3-yl)-1H-pyrazolo[3,4-d]pyrimidin-4-yl)thiophene-2-carboxamide], for which the 50% lethal concentration (LC50) in assay [1] (Table 5, MTS) is 400 nM. Further, the CC50 in assay [2] was 730 nM; in assay [3] it was 1100 nM.

In the case of `O=C(Nc1nc(-c2ccc(F)cc2)nc2c1cnn2-c1ccc(C(F)(F)F)cn1)c1ccc([N+](=O)[O-])s1` [Compound 7-1, N-(6-(4-fluorophenyl)-1-(5-(trifluoromethyl)pyridin-2-yl)-1H-pyrazolo[3,4-d]pyrimidin-4-yl)-5-nitrothiophene-2-carboxamide], in assay [1] (Table 7, MTS), the LC50 was 260 nM. Besides, the CC50 in assay [2] is more than 20000 nM; in assay [3], 8630 nM.

For `COCCOc1ccc(-c2nc(NC(=O)c3ccc([N+](=O)[O-])s3)c3cnn(-c4ccc(F)cc4)c3n2)cn1` [Compound 6-135, N-(1-(4-fluorophenyl)-6-(6-(2-methoxyethoxy)pyridin-3-yl)-1H-pyrazolo[3,4-d]pyrimidin-4-yl)-5-nitrothiophene-2-carboxamide], in assay [1] (Table 6, MTS), the LC50 was determined as 220 nM. In addition, the CC50 in assay [2] was determined as 690 nM; in assay [3], 560 nM.

In the case of `Cc1ccc(-n2ncc3c(NC(=O)c4ccc([N+](=O)[O-])s4)nc(-c4ccc(F)cc4)nc32)cc1` [Compound 6-4, N-(6-(4-fluorophenyl)-1-(p-tolyl)-1H-pyrazolo[3,4-d]pyrimidin-4-yl)-5-nitrothiophene-2-carboxamide], the median lethal concentration (LC50) in assay [1] (Table 6, MTS) came out at 280 nM. Also, the CC50 in assay [2] amounted to 1510 nM; in assay [3], 680 nM.

Regarding `Cc1ccc(-n2ncc3c(NC(=O)c4ccc([N+](=O)[O-])s4)nc(-c4ccc(F)cc4F)nc32)cc1` [Compound 6-11], the LC50 in assay [1] (Table 6, MTS) turned out to be 280 nM. Also, the CC50 amounted to 670 nM in assay [2] and 330 nM in assay [3].

For `O=C(Nc1nc(-c2ccc(Cl)cc2)nc2c1cnn2-c1ccc(F)cc1)c1ccc([N+](=O)[O-])s1` [Compound 6-118, N-(6-(chlorophenyl)-1-(4-fluorophenyl)-1H-pyrazolo[3,4-d]pyrimidin-4-yl)-5-nitrothiophene-2-carboxamide], the median lethal concentration (LC50) in assay [1] (Table 6, MTS) was 250 nM. The CC50 in assay [2] is 2180 nM; in assay [3], 980 nM.

Regarding `O=C(Nc1nc(-c2cncnc2)nc2c1cnn2-c1ccc(F)cc1)c1ccc([N+](=O)[O-])s1` [Compound 6-112, N-(1-(4-fluorophenyl)-6-(pyrimidin-5-yl)-1H-pyrazolo[3,4-d]pyrimidin-4-yl)-5-nitrothiophene-2-carboxamide], the LC50 in assay [1] (Table 6, MTS) worked out at 220 nM. For the same compound, the CC50 in assay [2] turned out to be 810 nM; in assay [3] it was 970 nM.

As to `Cc1csc2c(NC(=O)c3ccc([N+](=O)[O-])s3)nc(-c3cccc(OC(F)(F)F)c3)nc12` [Compound 4-5, N-(7-methyl-2-(3-(trifluoromethoxy)phenyl)thieno[3,2-d]pyrimidin-4-yl)-5-nitrothiophene-2-carboxamide], the LC50 in assay [1] (Table 4, MTS) worked out at 790 nM. The CC50 in assay [2] worked out at 3510 nM; in assay [3], 2450 nM.

For the compound `CN(C)CCOc1nc(NC(=O)c2ccc([N+](=O)[O-])s2)c2cnn(-c3ccc(C(C)(C)C)cc3)c2n1` [Compound 6-58, N-(1-(4-(tert-butyl)phenyl)-6-(2-(dimethylamino)ethoxy)-1H-pyrazolo[3,4-d]pyrimidin-4-yl)-5-nitrothiophene-2-carboxamide], in assay [1] (Table 6, MTS), the median lethal concentration (LC50) is 690 nM. In addition, the CC50 in assay [2] was determined as 4090 nM; in assay [3] it was 3970 nM.

Regarding `Cn1ncc2c(NC(=O)c3ccc([N+](=O)[O-])s3)nc(-c3ccc(OC(F)(F)F)cc3)nc21` [Compound 1-5, N-(1-methyl-6-(4-(trifluoromethoxy)phenyl)-1H-pyrazolo[3,4-1]pyrimidin-4-yl)-5-nitrothiophene-2-carboxamide], the CC50 in assay [2] was 4320 nM; in assay [3], 2850 nM.

As for `O=C(Nc1nc(-c2ccc(OCC(F)(F)C(F)F)nc2)nc2c1cnn2C1CCCCC1)c1ccc([N+](=O)[O-])s1` [Compound 10-52, N-(1-cyclohexyl-6-(6-(2,2,3,3-tetrafluoropropoxy)pyridin-3-yl)-1H-pyrazolo[3,4-d]pyrimidin-4-yl)-5-nitrothiophene-2-carboxamide], the LC50 in assay [1] (Table 10, MTS) stood at 420 nM.

Turning to `O=C(Nc1nc(-c2ccc(OC(F)(F)F)cc2)nc2c1cnn2-c1ccc(F)cc1)c1ccc([N+](=O)[O-])s1` [Compound 6-123, N-(1-(4-fluorophenyl)-6-(4-(trifluoromethoxy)phenyl)-1H-pyrazolo[3,4d]pyrimidin-4-yl)-5-nitrothiophene-2-carboxamide], in assay [1] (Table 6, MTS), the LC50 was determined as 340 nM.

Consider `O=C(Nc1nc(-c2ccc(F)cc2)nc2c(-c3ccccc3)csc12)c1ccc([N+](=O)[O-])s1` [Compound 4-15, N-(2-(4-fluorophenyl)-7-phenylthieno[3,2-d]pyrimidin-4-yl)-5-nitrothiophene-2-carboxamide], for which the LC50 in assay [1] (Table 4, MTS) turned out to be 620 nM.

For `Cn1ncc2c(NC(=O)c3ccc([N+](=O)[O-])s3)nc(-c3ccc(C(F)(F)F)cc3)nc21` [Compound 1-4, N-(1-methyl-6-(4-(trifluoromethyl)phenyl)-1H-pyrazolo[3,4-d]pyrimidin-4-yl)-5-nitrothiophene-2-carboxamide], the figures for the CC50 in assay [2] and in assay [3] were 6190 nM and 3560 nM, respectively.

Turning to `O=C(Nc1nc(-c2ccc(OCC(F)(F)F)nc2)nc2c1cnn2C1CCCCC1)c1ccc([N+](=O)[O-])s1` [Compound 10-49, N-(1-cyclohexyl-6-(6-(2,2,2-trifluoroethoxy)pyridin-3-yl)-1H-pyrazolo[3,4-d]pyrimidin-4-yl)-5-nitrothiophene-2-carboxamide], the LC50 in assay [1] (Table 10, MTS) was 630 nM.

`O=C(Nc1nc(-c2ccc(F)cc2)nc2c1cnn2C1CCCCCC1)c1ccc([N+](=O)[O-])s1` [Compound 8-10, N-(1-cycloheptyl-6-(4-fluorophenyl)-1H-pyrazolo[3,4-d]pyrimidin-4-yl)-5-nitrothiophene-2-carboxamide]: the LC50 in assay [1] (Table 8, MTS) was 830 nM.

In the case of `O=C(Nc1nc(-c2ccc(F)cc2F)nc2c1cnn2-c1ccc(F)cc1)c1ccc([N+](=O)[O-])s1` [Compound 6-126], the LC50 in assay [1] (Table 6, MTS) was determined as 350 nM.

For the compound `O=C(Nc1nc(-c2ccc(Cl)c(Cl)c2)nc2c1cnn2C1CCCCC1)c1ccc([N+](=O)[O-])s1` [Compound 10-43, N-(1-cyclohexyl-6-(3,4-dichlorophenyl)-1H-pyrazolo[3,4,d]pyrimidin-4-yl)-5-nitrothiophene-2-carboxamide], the median lethal concentration (LC50) in assay [1] (Table 10, MTS) was determined as 770 nM.

On to `CC1(C)CCC(n2ncc3c(NC(=O)c4ccc([N+](=O)[O-])s4)nc(-c4ccc5c(c4)OCO5)nc32)CC1` [Compound 10-66, N-(6-(benzo[d][1,3]dioxol-5-yl)-1-(4,4-dimethylcyclohexyl)-1H-pyrazolo[3,4-d]pyrimidin-4-yl)-5-nitrothiophene-2-carboxamide], for which, in assay [1] (Table 10, MTS), the LC50 was determined as 610 nM.

For `O=C(Nc1nc(-c2ccc(C(F)(F)F)cc2F)nc2c1cnn2-c1ccccc1)c1ccc([N+](=O)[O-])s1` [Compound 5-51, N-(6-(2-fluoro-4-(trifluoromethyl)phenyl)-1-phenyl-1H-pyrazolo[3,4-d]pyrimidin-4-yl)-5-nitrothiophene-2-carboxamide], the 50% lethal concentration (LC50) in assay [1] (Table 5, MTS) is 370 nM.
